According to PMC12670317, “Targeted NAT10 Degradation by PROTAC NP1192 Suppresses Hypoxia-Adaptive Glycolysis and Reinvigorates CD8^+ Effector T‑Cell Function for Synergistic Cancer Immunotherapy” (ACS Central Science, 2025):

How the values were obtained:
[1] = system: C57BL/6J mice; assay: Acute toxicity in C57BL/6J mice; details: mouse, in vivo, 1000 mg/kg
Protocol: (§1) Six-weeks old C57BL/6J male mice were purchased from Guangzhou Southern Medical University Experimental Animal Technology Development Co. The mice were administered intraperitoneally NP1192 (100, 500, 1000 mg/kg). The survival of mice was monitored for 14 days, consecutively.

[2] = Acute toxicity in C57BL/6J mice; details: male, mouse, in vivo, ip; C57BL/6J mice, intraperitoneal, 14 days survival
Protocol: as §1

[3] = system: U14 cells subcutaneous xenograft; assay: U14 subcutaneous xenograft model in C57BL/6J mice; format: in vivo
Protocol: U14 cells (1 × 10^7 cells per mouse, approximately 100–150 μL of cell suspension) were implanted subcutaneously into the lateral lower dorsal surface of each mouse. The tumors were allowed to grow for 7 days, and the mice were then administered one of five treatments (group 1: U14 cells + DMSO; group 2: U14 cells + Remodelin; group 3: U14 cells + anti-PD-L1 antibody; group 4: U14 cells + NP1192; group 5: U14 cells + anti-PD-L1 antibody + NP1192). Each group of mice was assigned according to the principles of randomization and the blinding method. Tumors were measured every 2 days, and tumor volume was calculated via the following equation: volume = (width)^2 × length/2. Remodelin and NP1192 were injected into the peritumoral area every 2 days at a dose of 25 mg/kg, and the in vivo antimouse PD-L1 antibody (low endotoxin) was injected every 3 days at a dose of 2.5 mg/kg.
A lentiviral vector expressing firefly luciferase was transduced into the U14 cells. After puromycin selection and cell expansion, U14 cells with stable firefly luciferase expression were generated. C57BL/6J mice were randomly divided into the following 5 groups for further experiments: group 1, U14 cells + DMSO; group 2, U14 cells + Remodelin; group 3, U14 cells + anti-PD-L1 antibody; group 4, U14 cells + NP1192; and group 5, U14 cells + anti-PD-L1 antibody + NP1192. After tumor stabilization, the luciferase substrate was injected into the mice every 2 days, and fluorescence values were obtained via a Maestro in vivo imaging system.

[4] = system: CD8+ T cells cocultured with U14 cells; details: Figure 7B, coculture with U14 cells, 36 h
Protocol: Fresh CD8^+ T cells were extracted according to the instructions of the kit. The day before the CD8^+ T cells were extracted, the antimouse CD3 antibody was diluted to 5 μg/mL with sterile PBS, and the diluted antibody was added to a 24-well plate and incubated overnight at 4 °C. (Before the antibody was added to the plate, the plate was rinsed with sterile PBS 2–3 times to avoid dry wells). The plate incubated the previous day was removed from the 4 °C refrigerator on the second day, and the coating solution was discarded, followed by washing with sterile PBS 3 times. Amplification culture medium consisting of DMEM + 10% serum + 5 μg/mL antimouse CD28 + IL-2 was prepared. The cell lines used for culture were maintained in the logarithmic growth phase (70–80% confluence). Cell counting was performed, and CCa cells were seeded in a 12-well plate (10^5 cells/well) and cultured until adherence. T cells were mixed with tumor cells at different effector-to-target ratios (1:10) and then incubated with different drugs for 24 h. Flow cytometry experiments were then performed to detect the CD8^+ T-cell subtypes.

[5] = system: HIF-1α; assay: HIF-1α protein level in SiHa cells, Western blot; format: cell-based, human; details: 36 h
Protocol: RIPA lysis buffer (Beyotime, China) mixed with 1% protease inhibitor (Sigma, US) was added to the cells, and a sample of total protein was obtained and then loaded onto an 8% or 12% polyacrylamide gel. The gel was placed in a buffer solution, and an electric current was applied. The separated proteins were subsequently transferred from the gel onto a PVDF membrane. Next, the membrane was blocked with 5% milk for 1 h to prevent nonspecific antibody binding. The membranes were subsequently incubated with anti-NAT10 (1:1000, Abcam, USA), anti-PD-L1 (1:1000, Proteintech, China), anti-HIF-1α (1:1000, Abmart, China), and anti-β-tubulin (1:1000, Proteintech, China) primary antibodies for 12 h. Afterward, the membrane was sequentially washed with 1× TBST and incubated for 1 h with an antimouse secondary antibody (1:6000, Elabscience, China) or antirabbit secondary antibody (1:6000, Elabscience, China). The target proteins were detected via chemiluminescence with a ChemiDoc MP Imaging System (Bio-Rad, US).

[6] = system: NP1192^Resist SiHa cells; assay: IC50 and resistance index in NP1192-resistant SiHa cells (CCK-8); format: cell-based, human
Protocol: We generated Remodelin-resistant (Remodelin^Resist SiHa) and NP1192-resistant (NP1192^Resist SiHa) SiHa CCa cell lines by applying a stepwise dose escalation strategy, as previously described in the literature. To quantitatively assess resistance, we calculated the resistance index for each subline following the established methodologies. Briefly, 3000 cells per well were seeded in 96-well plates and treated with increasing concentrations of Remodelin or NP1192 (0, 10, 50, 100, and 150 μM) for 24 h. Following treatment, 10 μL of CCK-8 reagent was added to each well and incubated for an additional 2 h. Absorbance at 490 nm was measured, and the IC50 values were calculated using GraphPad Prism 9.0. The RI was defined as the ratio of the IC50 in resistant cells to that in parental cells.

[7] = system: HFF-1 cells; assay: Cytotoxicity in nonmalignant HFF-1 cells; format: cell-based, human; details: HFF-1 cells with low NAT10 expression
[8] = system: SiHa cells; assay: Lactic acid, ATP and 2-NBDG uptake assays in SiHa cells; format: cell-based, human; details: 20 μM, 36 h
Protocol: SiHa and U14 cells (2 × 10^5 cells per well) were plated in 6-well plates and cultured in RPMI 1640 medium or DMEM supplemented with 10% FBS and 1% penicillin–streptomycin. After cell adherence, 20 μM NP1192 or DMSO was added and incubated for 36 h, and the assays were performed according to the instruction manuals for the Lactate Assay Kit (Nanjing Jiancheng, China), ATP Assay Kit (Beyotime, China), and 2-NBDG reagent (GlpBio, US). All data analyses were performed via GraphPad Prism 9, and the data are presented as the means ± SEMs.

N#Cc1ccc(-c2csc(N(CCCCCCC(=O)N3CCN(c4cccc5c4C(=O)N(C4CCC(=O)NC4=O)C5=O)CC3)N=C3CCCC3)n2)cc1 (stereo not drawn) [NP1192]
tolerability in acute toxicity test [1]: well-tolerated
LD50 at 14 days [2]: > 1000 mg/kg
tumor volume ([3]; 25 mg/kg every 2 days, compared to DMSO or Remodelin): significantly reduced tumor volume
weight loss or systemic toxicity ([3]; U14 xenograft mice, 25 mg/kg): did not cause significant weight loss or systemic toxicity
reduction in tumor lactate levels ([3]; xenograft tumors after treatment for 1 week): more than 40%
Teff cells, IFN-γ gate (lower row) [4]: 7.75%
HIF-1α protein levels [5]: decreased HIF-1α protein levels
resistance index (RI = IC50 resistant/parental SiHa) ([6]; 76.2/7.814): 9.75
IC50 ([6]; Homo sapiens, NP1192^Resist SiHa cells): 76.2 µM
cytotoxicity in nonmalignant cells [7]: minimal cytotoxicity
lactate levels [8]: significantly decreased lactate levels
absorbtion rate (glucose analog 2-NBDG) ([8]; Figure 4K, DMSO 3.21): 1.94
